Measurements as given in patent publication US8268823B2, “Medical use of triazine derivatives” (University of Greenwich, priority 2006, dated 2012).
Read-outs that look alike come from different tables or passages of the source.

Columns and labels:
sodium channel [1] = experiment: veratrine-evoked uptake of [14C]guanidine into rat forebrain synaptosomes ([14C]guanidine flux); type: biochemical
Method: The screening strategy is designed to select compounds with appropriate sodium channel blocking activity and low side effect liability. To this end all compounds are processed through the primary sodium channel assay (veratrine-evoked uptake of [^14C]guanidine into rat forebrain synaptosomes) and IC50 values computed from generated concentration-effect curves.
Synaptosomes (heavy and light mitochondrial fraction containing synaptosomes) were prepared by transferring the forebrain (of known wet weight) to a glass Potter vessel to which 9 volumes ice-cold 0.25M sucrose had been added and homogenising, using a teflon pestle, by 8 ‘up and down strokes’ of a Braun Potter S motor driven homogeniser set to 900 rpm. The resulting homogenate was centrifuged at 1036×g at 4° for 10 min and the supernatant collected. The remaining pellet was resuspended, as above, in fresh ice-cold 0.25M sucrose and the centrifugation step repeated. The supernatant fractions were pooled and centrifuged at 40,000×g (average) at 4° for 15 min and the resulting pellet resuspended in the appropriate assay buffer at a concentration of 20-25 mg wet weight per ml appropriate assay buffer.
Both assays were carried out using 14 ml polypropylene test tubes to which a range of concentrations of the compounds under test were added.
Compounds under test were pre-incubated for 10 min at 30° in incubation buffer (50 mM pH 7.4 HEPES (adjusted to pH 7.4 with Tris base), 130 mM choline chloride, 5.5 mM D-glucose, 0.8 mm MgSO4 and 5 mM KCl) containing 7.5 mg original wet weight of tissue and 100 μg veratrine HCl in a final volume of 0.5 ml. […] A further 2×5 ml of ice-cold wash buffer was added to each tube and the vacuum filtration step repeated. The GF/C glass fibre filters were transferred to minivials and 4 ml Picofluor^40 liquid scintillant added using a Brandel™ deposit/dispense system. Radioactivity was measured using a Beckman Liquid Scintillation Counter.
(§1) Data are presented as mean±sem of number of experiments indicated in brackets.

hERG potassium channel [2] = target: T1, hERG potassium channel (Homo sapiens, UniProt Q12809); experiment: inhibition of binding of [3H]astemizole to cell membranes expressing hERG; details: for selectivity ratio: human, cell membranes expressing hERG, probe [3H]astemizole
T1 sequence (Q12809 whole entry): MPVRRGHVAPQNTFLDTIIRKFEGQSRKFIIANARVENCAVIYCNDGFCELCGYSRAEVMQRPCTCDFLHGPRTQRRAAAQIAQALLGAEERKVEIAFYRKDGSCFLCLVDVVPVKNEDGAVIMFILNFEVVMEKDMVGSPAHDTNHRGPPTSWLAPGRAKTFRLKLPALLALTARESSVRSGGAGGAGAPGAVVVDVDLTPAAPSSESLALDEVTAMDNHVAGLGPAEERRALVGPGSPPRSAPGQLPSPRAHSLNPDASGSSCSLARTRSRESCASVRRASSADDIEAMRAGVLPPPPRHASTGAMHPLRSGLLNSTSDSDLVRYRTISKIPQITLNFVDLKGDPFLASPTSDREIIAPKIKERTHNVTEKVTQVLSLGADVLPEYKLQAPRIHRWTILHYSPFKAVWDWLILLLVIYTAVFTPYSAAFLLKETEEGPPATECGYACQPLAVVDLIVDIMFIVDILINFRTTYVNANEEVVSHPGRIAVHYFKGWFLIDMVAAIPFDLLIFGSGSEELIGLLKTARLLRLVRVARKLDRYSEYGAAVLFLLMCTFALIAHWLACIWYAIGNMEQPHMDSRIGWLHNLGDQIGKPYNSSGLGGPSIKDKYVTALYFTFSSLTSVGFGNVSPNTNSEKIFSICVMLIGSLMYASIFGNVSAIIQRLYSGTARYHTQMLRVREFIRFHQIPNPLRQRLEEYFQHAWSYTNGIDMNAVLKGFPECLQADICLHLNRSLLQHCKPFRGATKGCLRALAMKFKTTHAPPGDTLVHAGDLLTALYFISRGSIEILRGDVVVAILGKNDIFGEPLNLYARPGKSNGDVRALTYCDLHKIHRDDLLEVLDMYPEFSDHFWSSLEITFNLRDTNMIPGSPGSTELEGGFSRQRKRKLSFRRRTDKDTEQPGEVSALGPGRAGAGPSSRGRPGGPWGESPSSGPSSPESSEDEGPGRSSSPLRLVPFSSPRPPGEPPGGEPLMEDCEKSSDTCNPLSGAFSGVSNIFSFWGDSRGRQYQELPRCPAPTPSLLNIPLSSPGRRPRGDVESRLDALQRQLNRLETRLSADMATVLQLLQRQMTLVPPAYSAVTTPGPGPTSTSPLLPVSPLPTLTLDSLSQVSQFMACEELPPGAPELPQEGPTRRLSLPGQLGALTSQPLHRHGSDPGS

hERG potassium channel [3] = target: T1, hERG potassium channel; experiment: in vitro; details: for selectivity ratio: hERG / [3H]BTX-B selectivity, ratio of extrapolated hERG IC50 to [3H]BTX-B IC50 (synaptosomes)
[4] = target: T2, DiHydroFolate Reductase (DHFR) (Rattus norvegicus, UniProt Q920D2); experiment: inhibition of binding of [3H]methotrexate to rat liver homogenate supernatant; details: for IC50: rat liver supernatant
T2 construct: from tissue; host or cells: rat liver homogenate supernatant (47,500 x g)
T2 sequence (Q920D2 1-187): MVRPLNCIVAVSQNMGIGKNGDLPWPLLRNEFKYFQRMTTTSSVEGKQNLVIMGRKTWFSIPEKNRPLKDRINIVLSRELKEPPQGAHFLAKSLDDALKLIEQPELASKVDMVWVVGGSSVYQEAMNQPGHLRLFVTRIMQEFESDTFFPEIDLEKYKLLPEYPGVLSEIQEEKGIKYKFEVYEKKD
Method: All steps were carried out at 4° (or on ice). Freshly dissected rat liver was dissected into 0.25M ice-cold Sucrose and subsequently homogenised (U-turrax) in 50 mM pH 6.0 phosphate buffer (10 ml/g tissue) containing 15 mM Dithiothreitol. The resulting homogenate was centrifuged @ 47,500×g for 20 min and supernatant (filtered through cotton wool to remove fatty lumps) stored @-80° before use (Rothenberg et al).
The binding reaction was stopped by the addition of 50 μl of a charcoal suspension (consisting of charcoal, Bovine Serum Albumin and Dextran present in a weight ratio of 100:4:1 suspended in 50 mM pH 6.0 phosphate buffer. Samples were vortexed, allowed to stand for 2 minutes and charcoal was precipitated by microcentrifugation @ full speed for 5 min. Aliquots of clear supernatant were transferred to counting vials containing liquid scintillant for measurement of radioactivity using Liquid Scintillation Spectroscopy.
Percentage inhibition values were calculated by comparison to this value.
as §1

sodium channel [5] = type: binding, rat
[6] = Table 3, rat forebrain synaptosomes, read-out: [14C]guanidine flux Mean (IC50: μM)
[7] = Table 5, read-out: [14C]guanidine flux IC50
[8] = read-out: [3H]methotrexate binding Inhibition (% @ assay conc'n), assay concentration 10 μM
[9] = read-out: [3H]methotrexate binding Inhibition (% @ assay conc'n), assay concentration 99 μM
[10] = Table 4, tissue prep'n Synaptosomes, read-out: [3H]BTX-B binding Mean (IC50: μM)
[11] = Table 5, Synaptosome data, read-out: [3H]BTX-B IC50

Compound | IC50 (sodium channel [1]; [6]) | IC50 (sodium channel [1]; [7]) | IC50 (hERG potassium channel [2]) | selectivity ratio (hERG potassium channel [2]) | inhibition at 10 µM (hERG potassium channel [3]) | IC50 [4] | inhibition at 10 µM [4, 8] | inhibition at 99 µM [4, 9] | IC50 (sodium channel [5]; [10]) | IC50 (sodium channel [5]; [11]) | selectivity ratio (hERG potassium channel [3]) | inhibition at 198 µM ([4]; read-out: [3H]methotrexate binding Inhibition (% @ assay conc'n), assay concentration 198 μM) | pIC50 (uptake of [14C]guanidine) (sodium channel [1]; Table 8) | IC50 (sodium channel [1]; Table 8, read-out: IC50 (μM) (uptake of [14C]guanidine)) | Hill (uptake of [14C]guanidine) (sodium channel [1]; Table 8, slope) | IC50 (sodium channel [5]; Table 1, synaptosomes, mean ± sem (n), read-out: [3H]BTX-B binding (synaptosomes), mean IC50) | IC50 (sodium channel [5]; Table 4, tissue prep'n Homogenate, read-out: [3H]BTX-B binding Mean (IC50: μM)) | [3H]methotrexate binding Inhibition (% @ assay conc'n) ([4]; assay concentration 10 μM) | [3H]methotrexate binding Inhibition (% @ assay conc'n) ([4]; assay concentration 99 μM)
N=c1nc(N)c(-c2cccc(Cl)c2Cl)nn1Cc1ccccc1C(F)(F)F [Example 23, 5(3)-Amino-6-(2,3-dichlorophenyl)-2,3(2,5)-dihydro-3(5)-imino-2-(2-trifluoromethyl)phenylmethyl-1,2,4-triazine] | 4.4 µM | 4.4 µM | 1.1 µM | 0.3 | 90% | – | – | – | – | – | – | – | – | – | – | – | – | – | –
N=c1nc(N)c(-c2cccc(Cl)c2Cl)nn1CC1CCNCC1 [Example 38, 4-[5(3)-Amino-6-(2,3-dichlorophenyl)-2,3(2,5)-dihydro-3(5)-imino-1,2,4-triazin-2-ylmethyl]piperidine dimethanesulfonate or 5(3)-Amino-6-(2,3-dichlorophenyl)-2,3(2,5)-dihydro-3(5)-imino-2-(piperidin-4-yl)methyl-1,2,4-triazine] | 20.9 µM | 20.9 µM | 2.5 µM | 0.1 | 80% | > 300 µM | – | – | – | – | – | – | – | – | – | – | – | – | –
N=c1nc(N)c(-c2cccc(Cl)c2Cl)nn1Cc1cccc(C(F)(F)F)c1 [Example 24, 5(3)-Amino-6-(2,3-dichlorophenyl)-2,3(2,5)-dihydro-3(5)-imino-2-(3-trifluoromethyl)phenylmethyl-1,2,4-triazine] | 4 µM | 4 µM | 0.6 µM | 0.2 | 94% | – | – | – | – | – | – | – | – | – | – | – | – | – | –
N=c1nc(N)c(-c2cccc(Cl)c2Cl)nn1Cc1cccc(F)c1 [Example 15, 5(3)-Amino-6-(2,3-dichlorophenyl)-2,3(2,5)-dihydro-3(5)-imino-2-(3-fluoro)phenylmethyl-1,2,4-triazine] | 3.9 µM | 3.9 µM | 2 µM | 0.5 | 83% | – | -4% | -5% | – | – | – | – | – | – | – | – | – | – | –
C=CCn1nc(-c2cccc(Cl)c2Cl)c(N)nc1=N [Example 10, 5(3)-Amino-6-(2,3-dichlorophenyl)-2,3(2,5)-dihydro-3(5)-imino-2-(prop-2-enyl)-1,2,4-triazine hemi-methanesulfonate] | 6.1 µM | 6.1 µM | 10 µM | 1.6 | 50% | – | -2% | -1% | – | – | – | – | – | – | – | – | – | – | –
N=c1nc(N)c(-c2cccc(Cl)c2Cl)nn1Cc1ccsc1 [Example 29, 5(3)-Amino-6-(2,3-dichlorophenyl)-2,3(2,5)-dihydro-3(5)-imino-2-(3-thienylmethyl)-1,2,4-triazine] | 7.3 µM | 7.3 µM | 2 µM | 0.3 | 83% | > 250 µM | – | – | 2.2 µM | 2.2 µM | 0.9 | – | – | – | – | – | – | – | –
COc1cccc(Cn2nc(-c3cccc(Cl)c3Cl)c(N)nc2=N)c1 [Example 18, 5(3)-Amino-6-(2,3-dichlorophenyl)-2,3(2,5)-dihydro-3(5)-imino-2-(3-methoxy)phenylmethyl-1,2,4-triazine] | 3.1 µM | 3.1 µM | 1.5 µM | 0.5 | 87% | – | -4% | -5% | – | – | – | – | – | – | – | – | – | – | –
N=c1nc(N)c(-c2cccc(Cl)c2Cl)nn1Cc1ccccc1F [Example 14, 5(3)-Amino-6-(2,3-dichlorophenyl)-2,3(2,5)-dihydro-3(5)-imino-2-(2-fluoro)phenylmethyl-1,2,4-triazine] | 2.8 µM | 2.8 µM | 2.5 µM | 0.9 | 80% | – | -1% | -4% | – | – | – | – | – | – | – | – | – | – | –
Cn1nc(-c2cccc(Cl)c2F)c(N)nc1=N [Example 36, 5(3)-Amino-6-(3-chloro-2-fluorophenyl)-2,3(2,5)-dihydro-3(5)-imino-2-methyl-1,2,4-triazine] | 129 µM | 129 µM | 20.3 µM | 0.2 | 33% | > 300 µM | – | – | – | – | – | – | – | – | – | – | – | – | –
COc1ccccc1Cn1nc(-c2cccc(Cl)c2Cl)c(N)nc1=N [Example 17, 5(3)-Amino-6-(2,3-dichlorophenyl)-2,3(2,5)-dihydro-3(5)-imino-2-(2-methoxy)phenylmethyl-1,2,4-triazine] | 4.6 µM | 4.6 µM | 1.9 µM | 0.4 | 84% | – | -4% | – | – | – | – | -3% | – | – | – | – | – | – | –
N=c1nc(N)c(-c2cccc(Cl)c2Cl)nn1Cc1ccoc1 [Example 30, 5(3)-Amino-6-(2,3-dichlorophenyl)-2,3(2,5)-dihydro-3(5)-imino-2-(3-furanylmethyl)-1,2,4-triazine] | 4.4 µM | 4.4 µM | 5.4 µM | 1.2 | 65% | > 250 µM | – | – | 2.6 µM | 2.6 µM | 2.1 | – | – | – | – | – | – | – | –
Nc1nc(N)c(-c2cc(Cl)cc(Cl)c2Cl)c(CF)n1 [BW202W92, reference compound] | 2 µM | – | – | – | – | – | – | – | 4.5 µM | – | – | – | 5.61 ± 0.04 | 2.5 µM | 1.07 | 4.5 ± 0.4 µM | 4.1 µM | −1% | 29%
N=c1nc(N)c(-c2cccc(Cl)c2Cl)nn1CCC(F)(F)F [Example 39, 5(3)-Amino-6-(2,3-dichlorophenyl)-2,3(2,5)-dihydro-3(5)-imino-2-(3,3,3-trifluoropropyl)-1,2,4-triazine] | 3.9 µM | 3.9 µM | 15 µM | 3.8 | 40% | > 300 µM | – | – | 1.6 µM | 1.6 µM | 9.4 | – | – | – | – | – | – | – | –
N=c1nc(N)c(-c2cccc(Cl)c2Cl)nn1Cc1cccc(F)c1F [Example 13, 5(3)-Amino-6-(2,3-dichlorophenyl)-2,3(2,5)-dihydro-3(5)-imino-2-(2,3-difluoro)phenylmethyl-1,2,4-triazine] | 2.8 µM | 2.8 µM | 1.9 µM | 0.7 | 84% | – | -3% | -4% | – | – | – | – | – | – | – | – | – | – | –
